The assay concerns BDF1 mice, P388 leukemia ip, median survival T/C. Briefly: NCI In Vivo Anticancer Drug Screen. Data for tumor model P388 Leukemia (intraperitoneal) in B6D2F1 (BDF1) mice. The note with it: endpoint: median survival time, higher = longer survival. In a few lines: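 Vehicle-dosed animals serve as the reference; survival of compound-dosed, tumour-implanted mice is divided by it.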

[1] abbreviates: dose: 50.0 mg/kg/injection, schedule: Q01DX009 (ip), vehicle: Klucel (hydroxypropylcellulose) (HPC).
[2] abbreviates: dose: 100.0 mg/kg/injection, schedule: Q04DX003 (ip), vehicle: Klucel (hydroxypropylcellulose) (HPC).
The mark [3] stands for this setting: dose: 200.0 mg/kg/injection, schedule: Q04DX003 (ip), vehicle: Klucel (hydroxypropylcellulose) (HPC).
[4] abbreviates: dose: 100.0 mg/kg/injection, schedule: Q01DX009 (ip), vehicle: saline.
[5] abbreviates: dose: 200.0 mg/kg/injection, schedule: Q01DX009 (ip), vehicle: saline.
The mark [6] stands for this setting: dose: 50.0 mg/kg/injection, schedule: Q01DX009 (ip), vehicle: saline with Tween-80.
[7] abbreviates: dose: 100.0 mg/kg/injection, schedule: Q01DX009 (ip), vehicle: saline with Tween-80.
Where [8] appears, read: dose: 100.0 mg/kg/injection, schedule: Q04DX003 (ip), vehicle: saline with Tween-80.
[9] abbreviates: dose: 200.0 mg/kg/injection, schedule: Q04DX003 (ip), vehicle: saline with Tween-80.
Where [10] appears, read: dose: 200.0 mg/kg/injection, schedule: Q01DX009 (ip), vehicle: saline with Tween-80.
The mark [11] stands for this setting: dose: 50.0 mg/kg/injection, schedule: Q01DX009 (ip), vehicle: saline.
[12] abbreviates: dose: 100.0 mg/kg/injection, schedule: Q04DX003 (ip), vehicle: saline.
Setting [13] is: dose: 400.0 mg/kg/injection, schedule: Q04DX003 (ip), vehicle: Klucel (hydroxypropylcellulose) (HPC).
Where [14] appears, read: dose: 3.12 mg/kg/injection, schedule: Q01DX009 (ip), vehicle: water.
[15] abbreviates: dose: 6.25 mg/kg/injection, schedule: Q01DX009 (ip), vehicle: water.
[16] abbreviates: dose: 400.0 mg/kg/injection, schedule: Q04DX003 (ip), vehicle: saline with Tween-80.

From PubChem BioAssay AID328 (DTP/NCI, 2004) come the findings set out here.

Values joined by “and” are separate entries in the source; they are usually repeats but may differ in a detail not shown here. Identical values can stand only once. Toxic doses and inconclusive results are not listed.

Turning to `CN(C)/N=N/c1nc[nH]c1C(N)=O`, the T/C is 116 % of control (dose: 25.0 mg/kg/injection, schedule: Q01DX010 (ip), vehicle: saline); 100 % of control and 108 % of control and 123 % of control under setting [1]; 100 % of control (dose: 50.0 mg/kg/injection, schedule: Q01DX010 (ip), vehicle: saline); 92 % of control and 97 % of control and 100 % of control (dose: 100.0 mg/kg/injection, schedule: Q01DX009 (ip), vehicle: Klucel (hydroxypropylcellulose) (HPC)); 100 % of control (2×) and 115 % of control (dose: 200.0 mg/kg/injection, schedule: Q01DX009 (ip), vehicle: Klucel (hydroxypropylcellulose) (HPC)); 109 % of control (dose: 208.0 mg/kg/injection, schedule: Q01DX001 (ip), vehicle: carboxymethylcellulose (CMC)). The T/C is, setting by setting: (dose: 275.0 mg/kg/injection, schedule: Q01DX001 (ip), vehicle: carboxymethylcellulose (CMC)) 110 % of control and 116 % of control; (dose: 400.0 mg/kg/injection, schedule: Q01DX009 (ip), vehicle: Klucel (hydroxypropylcellulose) (HPC)) 115 % of control and 122 % of control and 123 % of control; (dose: 418.0 mg/kg/injection, schedule: Q01DX001 (ip), vehicle: carboxymethylcellulose (CMC)) 119 % of control; (dose: 775.0 mg/kg/injection, schedule: Q01DX001 (ip), vehicle: carboxymethylcellulose (CMC)) 158 % of control.

Consider `Nc1ccc2ccccc2c1N=Nc1ccccc1`, for which the T/C was 109 % of control under setting [2] and 123 % of control under setting [3].

For `O=C(O)C1(NO)CCCC1`, the T/C runs as follows: under setting [4], 95 % of control; under setting [5], 104 % of control.

`CC1(c2ccco2)C(=O)NC(=O)N1C(=O)CCl` (configuration not stated): the T/C was 100 % of control under setting [6], 100 % of control under setting [7], 96 % of control under setting [8] and 96 % of control under setting [9].

As for `O=[N+]([O-])c1ccc(Cl)nc1`, under setting [10], the T/C was 95 % of control.

`CC1(C)N=C(N)N=C(N)N1c1cccc(CN)c1`: the T/C reads like this: (dose: 12.5 mg/kg/injection, schedule: Q04DX003 (ip), vehicle: saline) 90 % of control; (dose: 25.0 mg/kg/injection, schedule: Q01DX009 (ip), vehicle: saline) 100 % of control; (dose: 25.0 mg/kg/injection, schedule: Q04DX003 (ip), vehicle: saline) 100 % of control; under setting [11], 95 % of control and 105 % of control; (dose: 50.0 mg/kg/injection, schedule: Q04DX003 (ip), vehicle: saline) 100 % of control; under setting [4], 90 % of control and 110 % of control. Moreover, the T/C under setting [12] was 104 % of control.

Consider `O=[N+]([O-])c1ccc(C(Br)C(Br)c2ccccc2Br)cc1` (configuration not stated), for which the T/C by setting is: under setting [2], 100 % of control; under setting [3], 95 % of control; under setting [13], 90 % of control.

As for `COc1ccc2c(c1C)CCC1(C(=O)O)CC(C)C(O)CC21` (configuration not stated), the T/C is 95 % of control (dose: 50.0 mg/kg/injection, schedule: Q04DX003 (ip), vehicle: saline sonified); 100 % of control (dose: 100.0 mg/kg/injection, schedule: Q04DX003 (ip), vehicle: saline sonified); 100 % of control (dose: 200.0 mg/kg/injection, schedule: Q04DX003 (ip), vehicle: saline sonified).

Take `COc1cccc2c1C(=O)c1c(O)c3c(c(O)c1C2=O)C[C@@](O)(C(C)=O)C[C@@H]3OC(=O)CCN`: the T/C (dose: 1.56 mg/kg/injection, schedule: Q01DX009 (ip), vehicle: water) is 100 % of control and 123 % of control; the T/C under setting [14] is 93 % of control; the T/C under setting [15] was 169 % of control.

For `COc1c(Cl)cc(Cl)cc1Cl`, the T/C runs as follows: (dose: 100.0 mg/kg/injection, schedule: Q01DX009 (ip), vehicle: other) 90 % of control; (dose: 100.0 mg/kg/injection, schedule: Q04DX003 (ip), vehicle: other) 90 % of control; (dose: 200.0 mg/kg/injection, schedule: Q01DX009 (ip), vehicle: other) 100 % of control; (dose: 200.0 mg/kg/injection, schedule: Q04DX003 (ip), vehicle: other) 105 % of control; (dose: 400.0 mg/kg/injection, schedule: Q01DX009 (ip), vehicle: other) 114 % of control; (dose: 400.0 mg/kg/injection, schedule: Q04DX003 (ip), vehicle: other) 110 % of control.

`O=C1OCc2cc3ccccc3nc21`: the T/C was 109 % of control under setting [8], 100 % of control under setting [9] and 104 % of control under setting [16].

In the case of `[O]=[Sb]([c]1ccccc1)([c]1ccccc1)[c]1ccccc1`, the T/C (dose: 25.0 mg/kg/injection, schedule: Q04DX003 (ip), vehicle: saline with Tween-80) is 106 % of control; the T/C (dose: 50.0 mg/kg/injection, schedule: Q04DX003 (ip), vehicle: saline with Tween-80) is 101 % of control; the T/C under setting [8] is 114 % of control.

As for `C=CC(C)(C(=O)O)C(C)C` (configuration not stated), the T/C by setting is: under setting [6], 101 % of control; under setting [7], 100 % of control; under setting [10], 97 % of control.

For the compound `O=C(NC1=NN(c2ccccc2)C(=O)C1)Nc1ccccc1`, the T/C (dose: 87.5 mg/kg/injection, schedule: Q01DX009 (ip), vehicle: saline with Tween-80) was 110 % of control and the T/C (dose: 175.0 mg/kg/injection, schedule: Q01DX009 (ip), vehicle: saline with Tween-80) is 103 % of control.

In the case of `NC(=O)NOCC1NC(=O)C(CONC(N)=O)NC1=O` (configuration not stated), the T/C is, setting by setting: under setting [4], 116 % of control; (dose: 400.0 mg/kg/injection, schedule: Q01DX009 (ip), vehicle: saline) 105 % of control.

For the compound `C=C1C[C@H]2[C@@H]3C=C(C)C4=CC(=O)CC[C@]4(C)[C@H]3CC[C@]2(C)[C@@]1(OC(C)=O)C(C)=O`, the T/C reads like this: (dose: 62.5 mg/kg/injection, schedule: Q01DX010 (sc), vehicle: steriod suspending solution) 105 % of control; (dose: 125.0 mg/kg/injection, schedule: Q01DX010 (sc), vehicle: steriod suspending solution) 110 % of control; (dose: 250.0 mg/kg/injection, schedule: Q01DX010 (sc), vehicle: steriod suspending solution) 100 % of control; (dose: 500.0 mg/kg/injection, schedule: Q01DX010 (sc), vehicle: steriod suspending solution) 110 % of control.

For the compound `COc1ccc(SC/C(=N\NOS(=O)(=O)c2ccc(C)cc2)c2ccccc2)cc1`, the T/C is, setting by setting: under setting [11], 96 % of control; under setting [4], 98 % of control; under setting [5], 109 % of control.

For the compound `NNc1nccnc1Cl`, the T/C is 105 % of control under setting [12] and 103 % of control (dose: 200.0 mg/kg/injection, schedule: Q04DX003 (ip), vehicle: saline).

Regarding `O=C(NNC(=O)c1ccc([N+](=O)[O-])cc1)c1ccccc1`, the T/C was 95 % of control (dose: 3.0 mg/kg/injection, schedule: Q01DX009 (ip), vehicle: Klucel (hydroxypropylcellulose) (HPC)); 104 % of control (dose: 6.0 mg/kg/injection, schedule: Q01DX009 (ip), vehicle: Klucel (hydroxypropylcellulose) (HPC)); 100 % of control (dose: 12.0 mg/kg/injection, schedule: Q01DX009 (ip), vehicle: Klucel (hydroxypropylcellulose) (HPC)); 92 % of control under setting [1]; 104 % of control under setting [2]; 87 % of control under setting [3]. In addition, under setting [13], the T/C was 108 % of control.

With `CS(=O)(=O)OCC(=O)NCC(O)CNC(=O)COS(C)(=O)=O`, the T/C by setting is: (dose: 78.0 mg/kg/injection, schedule: Q04DX003 (ip), vehicle: saline with Tween-80) 150 % of control; (dose: 177.0 mg/kg/injection, schedule: Q04DX003 (ip), vehicle: saline with Tween-80) 161 % of control; (dose: 264.0 mg/kg/injection, schedule: Q04DX003 (ip), vehicle: saline with Tween-80) 231 % of control and 157 % of control; under setting [16], 209 % of control.

Turning to `COc1cccc2c1C(=O)c1c(O)c3c(c(O)c1C2=O)C[C@@](O)(/C(CO)=N/NC(=O)c1ccccc1)C[C@@H]3OC1CC(N)C(O)C(C)O1` (some centres not stated), the T/C was 180 % of control under setting [14]; 252 % of control under setting [15]; 267 % of control (dose: 12.5 mg/kg/injection, schedule: Q01DX009 (ip), vehicle: water).
